# Where two headings read alike, the source gives them in different places. Residues, ends and D or L forms follow the SMILES beside them. *: point of attachment. Myristoyl = CCCCCCCCCCCCCC(=O)*
# Legend:
# NHBE cells = test: UTP-induced mucin secretion from NHBE cells (ELISA); assay type: cell-based, human; conditions: for Mucin secretion, % of control levels: co-incubation with 0.1 mM UTP 45 min
# Experimental: In Results-I-1D, NHBE cells were preincubated with the indicated inhibitor for 15 min and then stimulated with 100 μM UTP for 2 h. Secreted mucin in response to the treatment was collected and assayed by ELISA. Data are presented as mean±S.E. (n=6 at each point).
# UTP is a well defined pathophysiologically relevant mucin secretagogue. Lethem ct al., Am. J. Respir. Cell Mol. Biol. 9, 315-322 (1993). […] To determine whether PKC and PKG were involved in regulation of mucin secretion in response to a pathophysiological stimulus, effects of PKC/PKG inhibitors on UTP-induced mucin secretion were investigated. NHBE cells were preincubated with various inhibitors for 15 min and then exposed to UTP (100 μM) plus the inhibitor for 2 h. The secreted mucin was measured by ELISA. […] Apparently, mucin secretion in NHBE cells may be regulated by a signaling mechanism involving both PKC and PKG.
# Peptide Blocking Studies—NHBE cells were preincubated with either the MANS or the RNS peptide (1-100 μM) for 15 min, and then PMA (100 nM)+8-Br-cGMP (1 μM) or UTP (100 μM) was added, and cells were incubated for an additional 15 min or 2 h. respectively. Mucin secretion was measured by ELISA and experimental results are designated as Results-I-2B-1 and Results-I-2B-2, as follows.
# PP2A is an essential component of the mucin secretory pathway. NHBE cells were preincubated with the indicated concentration of fostriecin, okadaic acid (500 nM), or medium alone for 15 min and then stimulated with PMA (100 nM)+8-Br-cGMP (1 μM) for 15 min or with UTP (100 μM) for 2 h. Secreted mucin was measured by ELISA. […] Thus, dephosphorylation of MARCKS by a PKG-activated PP2A appears to be an essential component of the signaling pathway leading to mucin granule exocytosis.
# Measurement of Mucin Secretion by ELISA—Before collection of “base line” and “test” mucin samples, the accumulated mucus at the apical surface of the cells was removed by washing with phosphate-buffered saline, pH 7.2. To collect the base-line secretion, cells were incubated with medium alone, and secreted mucin in the apical medium was collected and reserved. Cells were rested for 24 h and then exposed to medium containing the selected stimulatory and/or inhibitory reagents (or appropriate controls), after which secreted mucin was collected and reserved as the test sample. Incubation times for the base line and the test were the same but varied depending on the test reagent utilized. Both base line and test secretions were analyzed by ELISA using an antibody capture method as known in the art. See, e.g., Harlow et al., Antibodies: A Laboratory Manual, pp. 570-573, Cold Spring Harbor Laboratory, Cold Spring Harbor, N.Y. (1988). The primary antibody for this assay was 17Q2 (Babco, Richmond, Calif.), a monoclonal antibody that reacts specifically with a carbohydrate epitope on human airway mucins. The ratio of test/base-line mucin, which is similar to a “secretory index”, was used to quantify mucin secretion, allowing each culture dish to serve as its own control and thus, minimizing deviation caused by variability among culture wells. Wright et al., Am. J. Physiol. 271, L854-L861 (1996). Levels of mucin secretion were reported as percentage of the medium control.
# These experiments were carried out similarly to those described in Example 7. To test for stimulated secretion, the cells were exposed apically and basolaterally to uridine 5′-triphosphate (UTP) at a concentration of 0.1 mM in media. Cells were pre-incubated for 15 minutes with the MANS peptide and test cultures were then co-incubated with the MANS peptide and UTP for 45 minutes.
# NHBE cells were pre-incubated with okadaic acid (500 nM) for 15 min at 37° C./5% CO2, then stimulated with PMA (100 nM)+8-Br-cGMP (1 μM) for 15 min, or with UTP (0.1 mM) for 2 hours. Secreted mucin in the apical medium was collected and assayed by ELISA. […]
# U937 cells = test: Inhibition of lysozyme release from U937 cells; assay type: cell-based, human; conditions: for % Inhibition Lysozyme: at 50 μM of test peptide, 100 nM PMA; for Effect on PMA stimulated lysozyme secretion: pre-incubation with 50 to 100 μM (RNS: any time point or concentration tested)
# Experimental: U937 is a monocyte-like human cell line which was purchased from American Type Culture Collection (ATCC) Rockville, Md. (catalog #CRL-15932). The cells were maintained in medium consisting of RPMI 1640 with glutamine supplemented with 10% heat inactivated fetal bovine serum (Gibco, Carlsbad, Calif.), 50 IU/mL, penicillin, 50 μg/mL streptomycin at 37° C. in an atmosphere containing 5% CO2. U937 cells were washed and resuspended at 2.5×10^6 cells/mL in phenol red free RPMI-1640 medium (Cellgro, Mediatech Inc.). Aliquots of cells in 15 mL plastic tubes were preincubated with indicated concentrations of test peptides (dissolved in PBS, pH 7.0) for 10 min at 37° C. The cells were then stimulated with 100 nM PMA for 1 hour. The cells were then centrifuged at 400×g for 5 min at 4° C. Lysozyme released from U937 cells was measured using spectrophotometric assay as described previously by Ralph et al., 1976. (Ralph P, Moore M A S, and Nilsson K. Lysozyme synthesis by established human and murine histocytic lymphoma cell lines. J. Exp. Med. 143:1528-33, 1976). Briefly. 100 μL of supernatants were placed in a 96-well microtiter plate and mixed with 100 μL of a Micrococcus lysodeikticus (Sigma-Aldrich) suspension (0.3 mg/mL in 0.1 M sodium phosphate buffer, pH 7.0), incubated for […] at room temperature and decrease in absorbance at 450 nm was measured. Chicken egg white lysozyme (EMD Biosciences) was used as a standard.
# [1] = peptide 1 μM, 15 min preincubation, then UTP 100 μM 2 h
# [2] = peptide 100 μM, 15 min preincubation, then UTP 100 μM 2 h
# [3] = test agent 10 μM, 15 min preincubation, then UTP 100 μM 2 h
compound,measurement,setting,value
CCCCCCCCCCCCCC(=O)NCC(=O)N[C@@H](C)C(=O)N[C@@H](CCC(N)=O)C(=O)N[C@@H](Cc1ccccc1)C(=O)N[C@@H](CO)C(=O)N[C@@H](CCCCN)C(=O)N[C@H](C(=O)N[C@@H](C)C(=O)N[C@@H](C)C(=O)N[C@@H](CCCCN)C(=O)NCC(=O)N[C@@H](CCC(=O)O)C(=O)N[C@@H](C)C(=O)N[C@@H](C)C(=O)N[C@@H](C)C(=O)N[C@@H](CCC(=O)O)C(=O)N[C@@H](CCCNC(=N)N)C(=O)N1CCC[C@H]1C(=O)NCC(=O)N[C@@H](CCC(=O)O)C(=O)N[C@@H](C)C(=O)N[C@@H](C)C(=O)N[C@H](C(=O)N[C@@H](C)C(=O)O)C(C)C)[C@@H](C)O [MANS peptide] (Myristoyl-GAQFSKTAAKGEAAAERPGEAAVA-OH; C-terminus assumed),Mucin secretion as % of the level observed with 0.1 mM UTP absent MANS peptide,NHBE cells; peptide 1 μM,about 90%
same,"Mucin secretion, % of control levels","NHBE cells; peptide 1 μM, 15 min preincubation",146%
same,Mucin secretion as percent of control,NHBE cells; [1],143%
same,Mucin secretion as % of the level observed with 0.1 mM UTP absent MANS peptide,NHBE cells; peptide 10 μM,about 80%
same,"Mucin secretion, % of control levels","NHBE cells; peptide 10 μM, 15 min preincubation",128%
same,Mucin secretion as % of the level observed with 0.1 mM UTP absent MANS peptide,NHBE cells; peptide 100 μM,about 29%
same,"Mucin secretion, % of control levels","NHBE cells; peptide 100 μM, 15 min preincubation",46%
same,Mucin secretion as percent of control,NHBE cells; [2],46%
same,Mucin secretion as percent of control,NHBE cells; [3],125%
same,% Inhibition Lysozyme,U937 cells,40.8%
same,Effect on PMA stimulated lysozyme secretion,U937 cells,significantly attenuated
"CCCCCCCCCCCCCC(=O)NCC(=O)N[C@H](C(=O)N[C@@H](C)C(=O)N1CCC[C@H]1C(=O)N[C@@H](C)C(=O)N[C@@H](C)C(=O)N[C@@H](CCC(=O)O)C(=O)NCC(=O)N[C@@H](C)C(=O)NCC(=O)N[C@@H](C)C(=O)N[C@@H](CCC(=O)O)C(=O)N[C@H](C(=O)N[C@@H](CCCCN)C(=O)N[C@@H](CCCNC(=N)N)C(=O)N[C@@H](C)C(=O)N[C@@H](CO)C(=O)N[C@@H](C)C(=O)N[C@@H](CCC(=O)O)C(=O)N[C@@H](C)C(=O)N[C@@H](CCCCN)C(=O)N[C@@H](CCC(N)=O)C(=O)N[C@@H](C)C(=O)N[C@@H](Cc1ccccc1)C(=O)O)C(C)C)[C@@H](C)O [RNS peptide, reference compound] (Myristoyl-GTAPAAEGAGAEVKRASAEAKQAF-OH; C-terminus assumed)",Mucin secretion as percent of control,NHBE cells; [1],154%
same,Mucin secretion as percent of control,NHBE cells; [2],158%
same,Mucin secretion as percent of control,NHBE cells; [3],155%
same,% Inhibition Lysozyme,U937 cells,0%
same,Effect on PMA stimulated lysozyme secretion,U937 cells,did not affect
"CCCCCCCCCCCCCC(=O)NCC(=O)N[C@@H](C)C(=O)N[C@@H](CCC(N)=O)C(=O)N[C@@H](Cc1ccccc1)C(=O)N[C@@H](CO)C(=O)N[C@@H](CCCCN)C(=O)N[C@H](C(=O)N[C@@H](C)C(=O)N[C@@H](C)C(=O)N[C@@H](CCCCN)C(=O)NCC(=O)N[C@@H](CCC(=O)O)C(=O)O)[C@@H](C)O [SEQ ID NO: 13, N-myristoyl-GAQFSKTAAKGE] (Myristoyl-GAQFSKTAAKGE-OH; C-terminus assumed)",% Inhibition Lysozyme,U937 cells,85.2%
"CCCCCCCCCCCCCC(=O)NCC(=O)N[C@@H](C)C(=O)N[C@@H](CCC(N)=O)C(=O)N[C@@H](Cc1ccccc1)C(=O)N[C@@H](CO)C(=O)N[C@@H](CCCCN)C(=O)N[C@H](C(=O)N[C@@H](C)C(=O)N[C@@H](C)C(=O)N[C@@H](CCCCN)C(=O)O)[C@@H](C)O [SEQ ID NO: 15, N-myristoyl-GAQFSKTAAK] (Myristoyl-GAQFSKTAAK-OH; C-terminus assumed)",% Inhibition Lysozyme,U937 cells,56.6%
C[C@@](O)(/C=C/[C@H]1CC=CC(=O)O1)[C@@H](C[C@@H](O)\C=C/C=C\C=C\CO)OP(=O)(O)O [fostriecin],activity at 0.01 µM,"NHBE cells; Homo sapiens, NHBE, inhibitor 10 nM, 15 min preincubation, then UTP 100 μM 2 h, read-out: Mucin secretion as percent of control",152%
same,activity at 0.1 µM,"NHBE cells; Homo sapiens, NHBE, inhibitor 100 nM, 15 min preincubation, then UTP 100 μM 2 h, read-out: Mucin secretion as percent of control",134%
same,activity at 0.5 µM,"NHBE cells; Homo sapiens, NHBE, inhibitor 500 nM, 15 min preincubation, then UTP 100 μM 2 h, read-out: Mucin secretion as percent of control",124%
C=C1[C@@H](O)[C@@H]2O[C@]3(CC[C@H](/C=C/[C@@H](C)[C@@H]4CC(C)=C[C@@]5(O[C@H](C[C@@](C)(O)C(=O)O)CC[C@H]5O)O4)O3)CC[C@H]2O[C@@H]1[C@@H](O)C[C@H](C)[C@H]1O[C@@]2(CCCCO2)CC[C@H]1C [okadaic acid],activity at 0.5 µM,"NHBE cells; Homo sapiens, NHBE, read-out: Mucin secretion as percent of control, inhibitor 500 nM, 15 min preincubation, then UTP 100 μM 2 h",112%
same,Mucin secretion as percent of control,"NHBE cells; inhibitor 500 nM, 15 min preincubation, then UTP 100 μM 2 h",110%
same,Reduction in mucin secretion level from UTP-stimulated level,"NHBE cells; inhibitor 500 nM, UTP 0.1 mM 2 h",31%
TNF-α,"Mucin secretion level, % of control","NHBE cells; TNF-α 10 ng/ml 4 h, then UTP 0.1 mM 2 h",191%
